# The source made the active and inactive calls. No cut-off for these calls is given here.
# What was measured:
# [1] = […] assessed as singlet oxygen release by measuring DPBF oxidation rate in presence of 650 nm light by UV-vis spectrophotometer; format: functional
# [2] = Octanol/water partition coefficient, log P of the compound by shake-flask method; format: physicochemical
# [3] = Dark toxicity in human ECA109 cells assessed as cell viability at 5 uM after 24 hrs by MTT assay (reference value: 80%); format: cell-based, ECa-109; conditions: read-out: Activity
# ECa-109 cell line [4] = experiment: Photocytotoxicity against human ECA109 cells assessed as decrease in cell viability at 1 uM preincubated for 24 hrs followed by laser irradiation at 1 to 32 J/Cm'2 by MTT assay; format: functional, cell-based
# [5] = Dark toxicity in human ECA109 cells assessed as decrease in cell viability up to 1 uM after 24 hrs by MTT assay; format: cell-based; conditions: eca-109, 24 h
# ECa-109 cell line [6] = experiment: Decrease in tumor volume in human ECA109 cells xenografted in BALB/c nude mouse at 3 mg/kg, iv measured at 21 days post treatment in absence of laser irradiation; format: ADME, organism-based; conditions: in vivo, 504 h
# ECa-109 cell line [7] = experiment: Induction of apoptosis in human ECA109 cells assessed as early apoptotic cells at 5 uM preincubated for 24 hrs followed by laser irradiation at 16 J/cm'2 and measured after 24 hrs by annexin V/propidium iodide staining-based flow cytometric method (reference value: 2.45%); format: functional
# ECa-109 cell line [8] = experiment: Induction of apoptosis in human ECA109 cells assessed as increase in late apoptotic/necrotic cells preincubated for 24 hrs followed by laser irradiation at 16 J/cm'2 and measured after 24 hrs by annexin V/propidium iodide staining-based flow cytometric method; format: functional, cell-based
# ECa-109 cell line [9] = experiment: Antitumor activity against human ECA109 cells xenografted in BALB/c nude mouse assessed as decrease in tumor volume at 3 mg/kg, iv measured at 3 to 21 days post treatment in presence of 100 J/cm2 laser irradiation; format: functional, organism-based
# [10] = Drug uptake in nuclear membrane of human ECA109 cells at 5 uM incubated for 4 hrs in dark condition by Hoechst 33342 staining-based confocal fluorescence microscopy; format: ADME, cell membranes; conditions: eca-109, 4 h
# ECa-109 cell line [11] = experiment: Induction of apoptosis in human ECA109 cells assessed as late apoptotic/necrotic cells at 5 uM preincubated for 24 hrs followed by laser irradiation at 16 J/cm'2 and measured after 24 hrs by annexin V/propidium iodide staining-based flow cytometric method (reference value: 0.08%); format: functional
# ECa-109 cell line [12] = experiment: Induction of apoptosis in human ECA109 cells assessed as late apoptotic/necrotic cells at 1 uM preincubated for 24 hrs followed by laser irradiation at 16 J/cm'2 and measured after 24 hrs by annexin V/propidium iodide staining-based flow cytometric method (reference value: 0.08%); format: functional
# ECa-109 cell line [13] = experiment: Induction of apoptosis in human ECA109 cells assessed as early apoptotic cells at 1 uM preincubated for 24 hrs followed by laser irradiation at 16 J/cm'2 and measured after 24 hrs by annexin V/propidium iodide staining-based flow cytometric method (reference value: 2.45%); format: functional
# [14] = Drug uptake in cytoplasm of human ECA109 cells at 5 uM incubated for 4 hrs in dark condition by Hoechst 33342 staining-based confocal fluorescence microscopy; format: ADME, subcellular; conditions: eca-109, 4 h
SMILES,logP [2],Drug uptake [10],Drug uptake [14],K [1] [min⁻¹],"viability at 24 h, 5 µM [3] [%]",Activity (ECa-109 cell line [4]),Activity [5],Activity (ECa-109 cell line [6]),Activity (ECa-109 cell line [7]) [%],Activity (ECa-109 cell line [8]),Activity (ECa-109 cell line [9]),Activity (ECa-109 cell line [11]) [%],Activity (ECa-109 cell line [12]) [%],Activity (ECa-109 cell line [13]) [%]
CCCCCOC(C)c1c(C)c2cc3nc(c4c5[nH]c(cc6nc(cc1[nH]2)C(C)=C6CC)c(C)c5C(=O)C4)[C@@H](CCC(=O)N(CCC(=O)O)CCC(=O)O)[C@@H]3C (stereo partly specified),3.1,,,0.0241,50,Active,Non-Toxic,,,,,,,
C=Cc1c(C)c2cc3nc(c4c5[nH]c(cc6nc(cc1[nH]2)C(C)=C6CC)c(C)c5C(=O)C4)[C@@H](CCC(=O)O)[C@@H]3C,,,,0.0578,,,,,,,,,,
C=Cc1c(C)c2cc3nc(c4c5[nH]c(cc6nc(cc1[nH]2)C(C)=C6CC)c(C)c5C(=O)C4)[C@@H](CCC(=O)N(CCC(=O)OC)CCC(=O)OC)[C@@H]3C,3.3,,,,,,,,,,,,,

# The next lines start with results.
logP [2],Drug uptake [10],Drug uptake [14],SMILES,K [1] [min⁻¹],"viability at 24 h, 5 µM [3] [%]",Activity (ECa-109 cell line [4]),Activity [5],Activity (ECa-109 cell line [6]),Activity (ECa-109 cell line [7]) [%],Activity (ECa-109 cell line [8]),Activity (ECa-109 cell line [9]),Activity (ECa-109 cell line [11]) [%],Activity (ECa-109 cell line [12]) [%],Activity (ECa-109 cell line [13]) [%]
2.7,,,CCCOC(C)c1c(C)c2cc3nc(c4c5[nH]c(cc6nc(cc1[nH]2)C(C)=C6CC)c(C)c5C(=O)C4)[C@@H](CCC(=O)N(CCC(=O)O)CCC(=O)O)[C@@H]3C (stereo partly specified),0.0266,50,Active,Non-Toxic,,,,,,,
2.3,Active,Active,CCC1=C(C)c2cc3[nH]c(cc4nc(c5c6[nH]c(cc1n2)c(C)c6C(=O)C5)[C@@H](CCC(=O)N(CCC(=O)O)CCC(=O)O)[C@@H]4C)c(C)c3C(C)OC (stereo partly specified),0.0596,50,Active,Non-Toxic,Non-Toxic,5.41,Dose-dependent effect,Active,81.22,60.46,7.38
